Marks after values point to notes of the source that are not given here.
How the values were obtained:
[1] = oxygen radical absorbance capacity (ORAC) experiment; details: relative to Trolox; AAPH, fluorescein
Description: The antioxidant activity of the compounds was evaluated by using the oxygen radical absorbance capacity (ORAC) experiment. The detailed experimental procedure is as follows. 0.248 g of AAPH (2,2′-azobisisobutylamidine dihydrochloride) was added to a 50 mL phosphate buffer system to formulate a 18.3 mM AAPH stock solution. 20 μL of phosphate buffer, 20 μL solution of sample to be tested or standard substance Trolox (concentration of 6.25 μM) and 20 μL of fluorescent substance of disodium fluorescein (FL, concentration of 630 nM) were added to the wells of a 96-well plate in order. Then, 140 μL of AAPH (concentration of 18.3 mM) was quickly added to the wells of the 96-well plate, which was immediately placed in a GENios […] microplate reader manufactured by Tecan, Switzerland, the excitation wavelength was set as 485 nm and the emission wavelength was set as 527 nm. The fluorescence intensity was measured every 2 minutes and recorded for a total of 100 min.
The antioxidant capacity of the active substance is calculated as follows: Relative ORAC value=(AUCsample−AUCblank)/(AUCtrolox−AUCblank). Wherein, AUCsample refers to the integral area under the fluorescence decay curve of the test sample, AUCtrolox refers to the integral area under the fluorescence decay curve of the standard substance Trolox, and AUCblank refers to the integral area under the fluorescence decay curve when the test sample or the standard substance Trolox is not added.

[2] = test system: Senile dementia fruit fly (Aβ42; P35*H29.3); assay: learning and memory (olfactory short-term memory, T-Maze) of Senile dementia fruit fly; type: in vivo; details: performance index, 100 μM in feed, n = 6
From the text: W^1118 (isoCJ1), as a background fruit fly of control group in the experiment, was abbreviated as “2U”. The fruit flies that successfully introduced with the pathogenic Aβ42 protein were (UAS-Aβ42; abbreviated as “H29.3”). This strain of fruit flies was hybridized with the fruit fly expressing the Gal4 promoter in whole brain, and the fruit fly strain carrying elav-GAL4^c155 (P35) and Aβ42 was obtained.
Three groups of drug-free control of healthy fruit fly, drug-free control of disease fruit fly, and dose disease fruit fly were set in the experiment.
All parents of tested fruit flies were housed and propagated at a constant temperature of 24° C. and a humidity of 42% RH (Relative humidity). On the first day after the emergence of the fruit flies, the fruit flies of control group and disease group, as well as the fruit flies to be administered were anesthetized with carbon dioxide, and then the fruit flies of the correct characters were selected into the glass tube containing food. During the dosing period, all tested fruit flies were kept in an incubator with a constant temperature of 28° C. and a constant humidity of 42% to ensure the drug taking efficiency of the fruit flies. Each day the fruit flies were administered for 4 hours, and the drug was administered from the second day after the fruit flies were selected until the 8th day.
The drugs administered were prepared on the second day after the fruit fly selection, and were administered to the fruit flies on the day of preparation. The drugs were dissolved by 100% DMSO to a concentration of 10 mM. When preparing the working solution, the 10 mM stock solution was diluted to 100 μM with 4% sucrose. In addition, the fruit flies of control group were fed sucrose water containing 1% DMSO. For each Performance Index, two tubes of fruit fly groups are required, each tube containing about 100 fruit flies.
Experiments were conducted in a light proof behavior room with constant temperature of 25° C., constant humidity of 70%. The method can be found in references^[1-3].
1) During the training stage, about 100 flies were loaded into a training tube provided with a copper mesh cross electrode. Two kinds of odors of octanol (OCT) and methylcyclohexanol (MCH) were successively introduced for each 60 s with an intervals for 45 s of fresh air. 60 V pulsed electrical shock stimulation (US, pulse duration 1.5 s, interval 3.5 s) was applied to the fruit flies while introducing the 1st odor. No electrical shock was applied when the second odor (CS−) was introduced. Thereby one training cycle was completed.
2) In the transient memory (learning) ability test, the fruit flies that completed one training cycle were immediately transferred to the selection point of T-Maze, while CS+ and CS− were introduced from the opposite two directions. After two minutes of selection, the fruit flies on both sides were collected separately and counted after anesthesia or sacrifice. The calculation formula for the performance index (PI) is as follows: PI=[(CS−)−(CS+)]/[(CS−)+(CS+)]×100.
Using OCT and MCH as CS+ for training and testing respectively, the average of the two PIs obtained was used as PI for one experiment. […] When performing the activity test, the short-term memory deficit tests for the olfactory sensation of the non-administered healthy flies with the same genetic background (2U*H29.3), non-administered Senile dementia disease flies (P35*H29.3), and test drug administered Senile dementia disease flies were also conducted, and their total learning and memory performance indexes (PIs) was calculated respectively. The learning and memory performance index of the test drug administered Senile dementia disease flies was compared with the performance index of the non-administered healthy flies with the same genetic background (2U*H29.3), and the performance index of the non-administered Senile dementia disease flies (P35*H29.3), to evaluate effect of the test drugs against Senile dementia. […]

[3] = test system: HEp-2 cells; assay: Cytotoxicity assay (MTT); type: cell-based; details: 72 hours
Description: (§1) 1) HEp-2 cells were seeded in 96-well cell culture plates at 100 μL/well and the cell density was 2.5×10^5/mL. The cells were cultured in a 37° C., 5% CO2 incubator and grown into a cell single layer over about 20 h.
(§2) 2) The culture fluid in the 96-well plate was discarded and the sample to be tested was half diluted into different concentrations by using maintenance solution. For each dilution, 3 replicate wells were set at 100 μL/well, and cell control wells were also set at the same time. Then they were placed in the incubator to continue the culture.
(§3) 3) The cytopathic effect caused by sample toxicity was observed every day. After 72 hours, the culture solution was discarded, and according to the MTT method, 30 μL of 5 mg/mL MTT solution was added into each well. They were placed in the incubator to continue the incubation for 4 h in dark.

[4] = test system: respiratory syncytial virus (RSV); assay: microbe, parasite or virus in culture; type: cell-based; details: for IC50: RSV in HEp-2 cells, CPE, 60-72 hours; for SI = CC50/IC50: RSV, HEp-2 cells
Description: as §1
2) The culture fluid in the 96-well plate was discarded and the sample to be tested was half diluted by using maintenance solution with the starting concentration of the monomeric compound being 50 μM, and 50 μL of sample and 50 μL of 100×TCID50 of virus dilution being added into each well. The positive control drug Ribavirin group, virus control group and cell control group were set and placed in a 37° C., 5% CO2 incubator for culture.
3) The culture was continued for 60-72 hours, and the viral lesions in each group were recorded when the lesions were completely developed in the virus control group.
4) The virus-induced cytopathic effect was recorded as follows: no cellular lesion was recorded as “−”, 0 to 25% cellular lesions was recorded as “+”, 25% to 50% cellular lesion was recorded as “++”, 50%˜75% of cellular lesion was recorded as “+++”, and 75% to 100% of cellular lesion was recorded as “++++”. The sample concentration corresponding to the “++” lesion level is the half inhibitory concentration IC50 of the sample against the virus.
5) Three replicates were performed independently for each experiment.

[5] = Cytotoxicity assay (MTT); type: cell-based; details: human, HEp-2 cells
Description: as §1, §2, §3

SMILES	ORAC value [1] [μmol TE/μmol]	PI (100 μM) ([2]; experiment a)	CC50 [3] [µM]	MNCC [3] [µM]	IC50 [4] [µM]	SI = CC50/IC50 [4]	PI (100 μM) ([2]; experiment b)	PI (100 μM) ([2]; experiment c)	CC50 at 72 h [5] [µM]	IC50 ([4]; human respiratory syncytial virus) [µM]
O=C(/C=C/c1ccc(O)c(O[C@@H]2O[C@H](CO)[C@@H](O)[C@H](O)[C@H]2O)c1)NCCCNCCCCNC(=O)CCc1ccc(O)c(O)c1 [formula III]	1.87 ± 0.04	42.9 ± 1.6***	> 100	>100	25	>4				
O=C(/C=C/c1ccc(O)c(O)c1)NCCCNCCCCNC(=O)CCc1ccc(O)c(O[C@@H]2O[C@H](CO)[C@@H](O)[C@H](O)[C@H]2O)c1 [formula IV]	1.73 ± 0.04	42.2 ± 2.1***	> 100	>100	25	>4				
O=C(CCc1ccc(O)c(O[C@@H]2O[C@H](CO)[C@@H](O)[C@H](O)[C@H]2O)c1)NCCCCNCCCNC(=O)CCc1ccc(O)c(O[C@@H]2O[C@H](CO)[C@@H](O)[C@H](O)[C@H]2O)c1 [formula XII]	1.23 ± 0.04		> 100	>100		>2	33.5 ± 3.0**			
CC12CC3CC(C)(C1)CC(N)(C3)C2 [Memantine, reference compound]		43.1 ± 0.9***					42.7 ± 0.9***	44.2 ± 2.1***		
NC(=O)c1ncn([C@@H]2O[C@H](CO)[C@@H](O)[C@H]2O)n1 [Ribavirin, reference compound]				15.32 ± 4.31		15			37.9 ± 3.82	2.5
O=C(CCc1ccc(O)c(O[C@@H]2O[C@H](CO)[C@@H](O)[C@H](O)[C@H]2O)c1)NCCCCNCCCNC(=O)CCc1ccc(O[C@@H]2O[C@H](CO)[C@@H](O)[C@H](O)[C@H]2O)c(O)c1 [formula XIV]	1.81 ± 0.05		> 100	>100		>2		44.6 ± 1.2***		
O=C(/C=C/c1ccc(O)c(O)c1)NCCCNCCCCNC(=O)CCc1ccc(O[C@@H]2O[C@H](CO)[C@@H](O)[C@H](O)[C@H]2O)c(O)c1 [formula II]	2.04 ± 0.04	35.5 ± 3.8*	> 100	>100	25	>4				
O=C(/C=C\c1ccc(O)c(O[C@@H]2O[C@H](CO)[C@@H](O)[C@H](O)[C@H]2O)c1)NCCCNCCCCNC(=O)CCc1ccc(O[C@@H]2O[C@H](CO)[C@@H](O)[C@H](O)[C@H]2O)c(O)c1 [formula VIII]	3.07 ± 0.02		> 100	>100		>2	32.2 ± 2.3*			
O=C(O[C@@H]1Cc2c(O)cc(O)cc2O[C@@H]1c1cc(O)c(O)c(O)c1)c1cc(O)c(O)c(O)c1 [EGCG, epigallocatechin gallate, reference compound]	1.48 ± 0.02									
O=C(/C=C/c1ccc(O[C@@H]2O[C@H](CO)[C@@H](O)[C@H](O)[C@H]2O)c(O)c1)NCCCNCCCCNC(=O)CCc1ccc(O)c(O)c1 [formula V]	2.96 ± 0.03	35.0 ± 1.3*	> 100	>100	25	>4				
O=C(CCc1ccc(O[C@@H]2O[C@H](CO)[C@@H](O)[C@H](O)[C@H]2O)c(O)c1)NCCCCNCCCNC(=O)CCc1ccc(O[C@@H]2O[C@H](CO)[C@@H](O)[C@H](O)[C@H]2O)c(O)c1 [formula XIII]	2.06 ± 0.04		> 100	>100	25	>4	42.5 ± 3.0***			
O=C(/C=C/c1ccc(O)c(O[C@@H]2O[C@H](CO)[C@@H](O)[C@H](O)[C@H]2O)c1)NCCCNCCCCNC(=O)CCc1ccc(O)c(O[C@@H]2O[C@H](CO)[C@@H](O)[C@H](O)[C@H]2O)c1 [formula VII]	1.02 ± 0.02		> 100	>100		>2	44.6 ± 2.5***			
O=C(CCc1ccc(O)c(O)c1)NCCCCNCCCNC(=O)CCc1ccc(O)c(O[C@@H]2O[C@H](CO)[C@@H](O)[C@H](O)[C@H]2O)c1 [formula XI]	2.07 ± 0.03		> 100	>100	25	>4	37.2 ± 2.9***			
